We go through two molecules from ChEMBL document CHEMBL3621157, “Design, synthesis and biological evaluation of novel 1,2,4-triazolo and 1,2,4-triazino[4,3-a]quinoxalines as potential anticancer and antimicrobial agents” (2015).

In brackets after ≈: the same amount, converted by molar mass.

Holding throughout (format): functional
One test deals with SNB-75. The test can be described thus: Growth inhibition of human SNB75 cells at 10 uM incubated for 48 hrs by sulforhodamine B assay. To be noted: SNB-75, 48 h, read-out: GI.
In test [1] the test system is Staphylococcus aureus. The test can be described thus: Antimicrobial activity against Staphylococcus aureus DSM 1104 incubated at 37 degC for 24 hrs by cup diffusion method.
Test [2] has as its system Pseudomonas aeruginosa. The test can be described thus: Antimicrobial activity against Pseudomonas aeruginosa ATCC 10145 incubated at 37 degC for 24 hrs by cup diffusion method.
Test [3] has as its system Pseudomonas aeruginosa. Description: Antimicrobial activity against Pseudomonas aeruginosa ATCC 10145 incubated for 24 hrs followed by transfer of colonies to Muller-Hinton agar plate and measured after 18 hrs by two-fold serial broth dilution method.
Another test deals with CAKI-1. The test can be described thus: Growth inhibition of human Caki1 cells at 10 uM incubated for 48 hrs by sulforhodamine B assay. To be noted: CAKI-1, 48 h, read-out: GI.
The subject of test [4] is Escherichia coli. Description: Antimicrobial activity against Escherichia coli ATCC 11775 incubated for 24 hrs by two-fold serial broth dilution method. To be noted: ATCC 11775, 24 h.
Test [5] has as its system Bacillus subtilis. The test can be described thus: Antimicrobial activity against Bacillus subtilis ATCC 6633 incubated at 37 degC for 24 hrs by cup diffusion method.
Test [6] deals with Staphylococcus aureus. The test can be described thus: Antimicrobial activity against Staphylococcus aureus DSM 1104 incubated for 24 hrs followed by transfer of colonies to Muller-Hinton agar plate and measured after 18 hrs by two-fold serial broth dilution method.
Test [7] has as its system Pseudomonas aeruginosa. Description: Antimicrobial activity against Pseudomonas aeruginosa ATCC 10145 incubated for 24 hrs by two-fold serial broth dilution method. To be noted: ATCC 10145, 24 h.
In another test the test system is HCT-116. Description: Growth inhibition of human HCT116 cells at 10 uM incubated for 48 hrs by sulforhodamine B assay. To be noted: HCT-116, 48 h, read-out: GI.
In test [8] the test system is Candida albicans. Description: Antimicrobial activity against Candida albicans DSM 70014 incubated for 48 hrs followed by transfer of colonies to Muller-Hinton agar plate and measured after 18 hrs by two-fold serial broth dilution method.
For test [9], the system named is Bacillus subtilis. Description: Antimicrobial activity against Bacillus subtilis ATCC 6633 incubated for 24 hrs by two-fold serial broth dilution method. To be noted: ATCC 6633, 24 h.
For test [10], the system named is Escherichia coli. The test can be described thus: Antimicrobial activity against Escherichia coli ATCC 11775 incubated for 24 hrs followed by transfer of colonies to Muller-Hinton agar plate and measured after 18 hrs by two-fold serial broth dilution method.
Test [11] has as its system Staphylococcus aureus. The test can be described thus: Antimicrobial activity against Staphylococcus aureus DSM 1104 incubated for 24 hrs by two-fold serial broth dilution method. To be noted: DSM 1104, 24 h.
In another test the test system is HT-29. The test can be described thus: Growth inhibition of human HT-29 cells at 10 uM incubated for 48 hrs by sulforhodamine B assay. To be noted: HT-29, 48 h, read-out: GI.
A further test concerns A549. Description: Growth inhibition of human A549 cells at 10 uM incubated for 48 hrs by sulforhodamine B assay. To be noted: A549, 48 h, read-out: GI.
The test system of the next test is MDA-MB-231. The test can be described thus: Growth inhibition of human MDA-MB-231 cells at 10 uM incubated for 48 hrs by sulforhodamine B assay. To be noted: MDA-MB-231, 48 h, read-out: GI.
For the next test, the system named is NCI-H226. The test can be described thus: Growth inhibition of human NCI-H226 cells at 10 uM incubated for 48 hrs by sulforhodamine B assay. To be noted: NCI-H226, 48 h, read-out: GI.
Test [12] can be described thus: Growth inhibition of human RXF393 cells at 10 uM incubated for 48 hrs by sulforhodamine B assay. To be noted: RXF 393, 48 h, read-out: GI.
The test system of another test is HCT-15. The test can be described thus: Growth inhibition of human HCT15 cells at 10 uM incubated for 48 hrs by sulforhodamine B assay. To be noted: HCT-15, 48 h, read-out: GI.
Test [13] can be described thus: Growth inhibition of human EKVX cells at 10 uM incubated for 48 hrs by sulforhodamine B assay. To be noted: read-out: GI.
The subject of test [14] is Escherichia coli. Description: Antimicrobial activity against Escherichia coli ATCC 11775 incubated at 37 degC for 24 hrs by cup diffusion method.
The test system of a further test is NCI-H23. Description: Growth inhibition of human NCI-H23 cells at 10 uM incubated for 48 hrs by sulforhodamine B assay. To be noted: NCI-H23, 48 h, read-out: GI.
Test [15] relates to Candida albicans. The test can be described thus: Antimicrobial activity against Candida albicans DSM 70014 incubated at 37 degC for 48 hrs by cup diffusion method.
Test [16] concerns Candida albicans. Description: Antimicrobial activity against Candida albicans DSM 70014 incubated for 48 hrs by two-fold serial broth dilution method. To be noted: DSM 70014, 48 h.
Test [17] concerns Bacillus subtilis. Description: Antimicrobial activity against Bacillus subtilis ATCC 6633 incubated for 24 hrs followed by transfer of colonies to Muller-Hinton agar plate and measured after 18 hrs by two-fold serial broth dilution method.
A further test has as its system NCI-H522. The test can be described thus: Growth inhibition of human NCI-H522 cells at 10 uM incubated for 48 hrs by sulforhodamine B assay. To be noted: NCI-H522, 48 h, read-out: GI.
The next test relates to OVCAR-3. The test can be described thus: Growth inhibition of human OVCAR3 cells at 10 uM incubated for 48 hrs by sulforhodamine B assay. To be noted: OVCAR-3, 48 h, read-out: GI.
The subject of the next test is SF-268. Description: Growth inhibition of human SF268 cells at 10 uM incubated for 48 hrs by sulforhodamine B assay. To be noted: SF-268, 48 h, read-out: GI.
The next test deals with PC-3. Description: Growth inhibition of human PC3 cells at 10 uM incubated for 48 hrs by sulforhodamine B assay. To be noted: PC-3, 48 h, read-out: GI.
In a further test the test system is UO-31. Description: Growth inhibition of human UO31 cells at 10 uM incubated for 48 hrs by sulforhodamine B assay. To be noted: UO-31, 48 h, read-out: GI.

Consider `Nc1cc(-c2ccc(Cl)cc2)nn1-c1nc2ccccc2nc1Cc1ccccc1`, for which the inhibition of growth at 10 µM with SNB-75 was 15.6%; in the test on CAKI-1 it was 19.3%; with HCT-116 it was 27.2%; in the test with HT-29 it was 30.3%; in the test on A549 it was 22%; in the test on MDA-MB-231 it was 24.9%. For the same molecule, the inhibition of growth at 10 µM is 15.7% in the test on NCI-H226; 21.3% in [12]; 25.6% with HCT-15; 21.4% in test [13]; 18.5% with NCI-H23. Also, the “inhibition zone (IZ)” value with Staphylococcus aureus [1] is on record as 14 mm; in the test with Pseudomonas aeruginosa [2], 12 mm; in the test on Bacillus subtilis [5], 15 mm; in the test with Escherichia coli [14], 16 mm; with Candida albicans [15] it was 16 mm. For the same molecule, the minimum bactericidal concentration (MBC) in the test with Pseudomonas aeruginosa [3] was 50 µg/mL (≈ 121 µM); with Staphylococcus aureus [6], 100 µg/mL (≈ 243 µM); in the test with Escherichia coli [10] it was 100 µg/mL (≈ 243 µM); against Bacillus subtilis [17] it was 100 µg/mL (≈ 243 µM). For the same molecule, the MIC against Escherichia coli [4] was 100 µg/mL (≈ 243 µM); in the test on Pseudomonas aeruginosa [7], 50 µg/mL (≈ 121 µM); with Bacillus subtilis [9] it was 100 µg/mL (≈ 243 µM); with Staphylococcus aureus [11], 100 µg/mL (≈ 243 µM); against Candida albicans [16] it was 50 µg/mL (≈ 121 µM). In the test with Candida albicans [8], this molecule displayed an MFC of 50 µg/mL (≈ 121 µM).

On to `O=C(O)c1ccccc1-c1nnc2c(Cc3ccccc3)nc3ccccc3n12`, for which the inhibition of growth at 10 µM amounted to 24.4% in the test on SNB-75; 14.6% with NCI-H522; 20.2% in the test on OVCAR-3; 14.1% with SF-268; 43.9% with PC-3; 18% in the test with UO-31. For the same molecule, the “inhibition zone (IZ)” value is listed as 14 mm with Staphylococcus aureus [1]; 12 mm in the test on Pseudomonas aeruginosa [2]; 16 mm with Bacillus subtilis [5]; 15 mm in the test on Escherichia coli [14]; 14 mm in the test on Candida albicans [15]. Moreover, the MBC in the test with Pseudomonas aeruginosa [3] is 100 µg/mL (≈ 263 µM); against Staphylococcus aureus [6], 200 µg/mL (≈ 526 µM); against Escherichia coli [10], 50 µg/mL (≈ 131 µM); in the test on Bacillus subtilis [17] it was 100 µg/mL (≈ 263 µM). Further, the MIC was 25 µg/mL (≈ 65.7 µM) against Escherichia coli [4]; 100 µg/mL (≈ 263 µM) in the test on Pseudomonas aeruginosa [7]; 100 µg/mL (≈ 263 µM) against Bacillus subtilis [9]; 100 µg/mL (≈ 263 µM) against Staphylococcus aureus [11]; 25 µg/mL (≈ 65.7 µM) with Candida albicans [16]. The molecule also registered an MFC against Candida albicans [8] of 50 µg/mL (≈ 131 µM).
